The results in this text go back to ChEMBL document CHEMBL1201862, “PubChem BioAssay data set” (2004).

The nature of series [1]: NIH-3T3 fibroblast cytotoxicity, dose response, cytotoxicity control, cell-based, fluorescence, Alamar Blue, secondary assay (AID 2327).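 Also: NIH-3T3 mouse fibroblasts cultured with fluconazole at 8 µg/mL.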 Type of series: functional.
Series [2] concerns the target T1, Serine/threonine-protein phosphatase (Candida dubliniensis (strain CD36 / CBS 7987 / NCPF 3949 / NRRLY-17841) (Yeast), UniProt B9W6M3).
T1 sequence (B9W6M3 whole entry): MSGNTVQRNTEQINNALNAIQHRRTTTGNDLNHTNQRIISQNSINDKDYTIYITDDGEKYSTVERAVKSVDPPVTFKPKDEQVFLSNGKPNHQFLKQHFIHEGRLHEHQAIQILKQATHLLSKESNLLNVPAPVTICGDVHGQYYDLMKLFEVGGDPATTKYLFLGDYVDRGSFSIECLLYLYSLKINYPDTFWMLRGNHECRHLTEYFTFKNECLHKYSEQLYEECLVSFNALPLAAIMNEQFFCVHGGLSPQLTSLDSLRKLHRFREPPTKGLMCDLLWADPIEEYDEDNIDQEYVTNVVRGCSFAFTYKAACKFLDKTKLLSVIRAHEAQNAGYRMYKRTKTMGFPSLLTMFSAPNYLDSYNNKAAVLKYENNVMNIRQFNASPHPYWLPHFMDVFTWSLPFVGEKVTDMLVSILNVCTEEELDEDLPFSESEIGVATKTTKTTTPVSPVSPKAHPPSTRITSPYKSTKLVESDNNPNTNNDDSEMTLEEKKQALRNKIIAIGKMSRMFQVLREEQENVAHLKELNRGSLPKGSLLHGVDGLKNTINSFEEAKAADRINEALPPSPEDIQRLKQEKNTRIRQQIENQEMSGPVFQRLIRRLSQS
The experiment in a line: calcineurin pathway inhibitors in yeast reporter, dose response, S. cerevisiae, CDRE-lacZ, luminescence, secondary (AID 2388).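 Also: yeast reporter cells carrying a calcineurin-responsive lacZ construct stimulated with calcium chloride; luminescent beta-galactosidase reporter signal in whole cells rather than isolated phosphatase activity; potency for inhibition where a drop in reporter signal means calcineurin blockade.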 Type of series: functional, cell-based.

Series [3] is described as follows: Counterscreen for AddAB inhibitors: absorbance-based bacterial cell-based high throughput dose response assay for inhibitors of bacterial viability. [Related pubchem assays (depositor defined):AID435030, AID449728, AID449731, AID488942, AID488955, AID488956]. In kind it is functional. Background: The purpose of a counterscreen is to sort out artefacts and off-target activity.

Another series relates to Vero. Nature of the series: cells. The following applies: Chlorocebus sabaeus. Type of series: functional.
Series [4] deals with ATP-dependent molecular chaperone HSP82 (Candida albicans (strain WO-1) (Yeast), UniProt C4YTQ8). The experiment in a line: loss of DOC-induced GRE-beta-galactosidase reporter signal, dose response, Hsp90 inhibitor project, S. cerevisiae, luminescence (AID 2400).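 Also: beta-galactosidase luminescence from glucocorticoid response element reporter as proxy for Hsp90 function; inhibitor potency where signal loss means Hsp90 inhibition.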 Type of series: functional, cell-based.
Series [5] is described as follows: cells. Type of series: functional, cell-based.
For another series, the target named is Exodeoxyribonuclease V (Escherichia coli (strain K12), UniProt P04993+P07648+P08394). Nature of the series: E. coli RecBCD inhibitors, dose response, counter-screen for AddAB inhibitor project, absorbance, V66 E. coli, mutant T4 phage (AID 492957). Type of series: functional, cell-based, Escherichia coli str. K-12 substr. MG1655.
Series [6] can be described thus: cells. In kind it is functional, cell-based. The source holds these as a separate data set.
The nature of series [7]: C. albicans growth with fluconazole, confirmation, fluorescence, retest (AID 2467). Type of series: functional, cell-based.
Series [8] is described as follows: inhibitors of intracellular T. cruzi replication, confirmation, NIH3T3 host cells, beta-gal luminescence (AID 2044).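 Also: intracellular parasites grown in NIH/3T3 mouse fibroblasts as host cells; luminescent beta-galactosidase reporter signal from transgenic T. cruzi replicating inside host cells; inhibitors lower the luminescence signal.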 In kind it is functional, cell-based.
In another series the test system is INS1. Nature of the series: beta cell apoptosis inhibitors, cytokine rescue, dose response, luminescence, retest (AID 449756).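 Also: cell death triggered by IL-1 beta plus TNF-alpha plus IFN-gamma mixture; protective hits raise ATP signal compared with cytokine alone wells.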 Type of series: functional, cell-based. The following applies: Rattus norvegicus.
The target in series [9] is Heat shock protein HSP 90-alpha (Homo sapiens, UniProt P07900). Type of series: functional, organism-based.
Series [10] can be described thus: cytotoxicity toward NIH3T3 fibroblasts, dose response, counter-screen, cell-based, ATP luminescence, mouse fibroblasts (AID 2010).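 Also: cells exposed to compound for about 90 hours before reading.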 In kind it is functional.
Series [11] concerns HEK293. Nature of the series: cells. The conditions noted are these: Homo sapiens. Type of series: functional, cell-based.
Series [12] deals with HEK293. Nature of the series: cells. The conditions noted are these: Homo sapiens. In kind it is functional, cell-based. The source holds these as a separate data set.
For series [13], the system named is HEK293. Nature of the series: NOD1 signaling inhibitors, primary screen, cell-based, luminescence, uHTS (AID 1578). In kind it is functional. The following applies: Homo sapiens.
The subject of series [14] is HEK293. Nature of the series: NOD2 signaling inhibitors in MDP-stimulated cells, cell-based, uHTS, luminescence (AID 2001). Type of series: functional. The conditions noted are these: Homo sapiens.
Series [15] deals with T2, Alkaline phosphatase, tissue-nonspecific isozyme (Homo sapiens, UniProt P05186).
T2 sequence (P05186 whole entry): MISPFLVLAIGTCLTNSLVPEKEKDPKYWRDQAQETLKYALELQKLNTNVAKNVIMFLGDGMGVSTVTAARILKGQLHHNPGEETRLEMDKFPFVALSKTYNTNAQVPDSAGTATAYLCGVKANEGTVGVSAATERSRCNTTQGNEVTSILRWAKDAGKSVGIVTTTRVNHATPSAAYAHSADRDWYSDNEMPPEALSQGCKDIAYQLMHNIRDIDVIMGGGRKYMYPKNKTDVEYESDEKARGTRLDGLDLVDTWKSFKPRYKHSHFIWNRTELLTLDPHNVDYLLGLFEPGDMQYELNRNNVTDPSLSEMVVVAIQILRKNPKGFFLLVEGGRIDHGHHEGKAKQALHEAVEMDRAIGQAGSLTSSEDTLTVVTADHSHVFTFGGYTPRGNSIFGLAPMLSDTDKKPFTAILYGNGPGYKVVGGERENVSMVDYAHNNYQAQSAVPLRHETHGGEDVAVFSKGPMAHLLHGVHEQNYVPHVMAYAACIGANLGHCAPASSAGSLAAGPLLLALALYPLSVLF
The experiment in a line: human TNAP enzyme inhibitors, SAR follow-up, biochemical, luminescent, dose response (AID 1056).

The next series deals with Phosphomannomutase 2 (Homo sapiens, UniProt O15305). Nature of the series: Counter screen SAR assay for PMM2 inhibitors via a fluorescence intensity assay. [Related pubchem assays (depositor defined):AID1545, AID1574].
Series [16] addresses Phosphoethanolamine/phosphocholine phosphatase (Homo sapiens, UniProt Q8TCT1). The experiment in a line: SAR assay for compounds that inhibit PHOSPHO1. [Related pubchem assays (depositor defined):AID1545, AID1565, AID1574].
Series [17] deals with T3, Mannose-6-phosphate isomerase (Homo sapiens, UniProt P34949).
T3 sequence (P34949 whole entry): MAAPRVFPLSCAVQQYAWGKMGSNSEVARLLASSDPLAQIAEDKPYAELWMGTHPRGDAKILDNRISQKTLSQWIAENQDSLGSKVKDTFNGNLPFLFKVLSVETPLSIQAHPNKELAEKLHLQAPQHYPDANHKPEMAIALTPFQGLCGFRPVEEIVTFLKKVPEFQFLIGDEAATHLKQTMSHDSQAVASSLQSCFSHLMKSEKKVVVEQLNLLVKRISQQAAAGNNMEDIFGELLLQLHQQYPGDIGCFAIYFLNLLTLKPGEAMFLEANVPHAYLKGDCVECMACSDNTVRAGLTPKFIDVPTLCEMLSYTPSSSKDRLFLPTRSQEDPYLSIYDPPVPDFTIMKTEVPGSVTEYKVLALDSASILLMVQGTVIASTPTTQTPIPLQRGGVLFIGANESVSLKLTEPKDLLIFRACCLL
Nature of the series: PMI enzyme inhibitors, confirmation, biochemical, fluorescence intensity (AID 1535).

The next series concerns the target Cytochrome P450 3A4 (Homo sapiens, UniProt P08684).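 Also: CYP3A4 tested as one member of a cytochrome P450 panel screen.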
For a further series, the target named is Cytochrome P450 2C9 (Homo sapiens, UniProt P11712).
The target of a further series is T4, Streptokinase A (Streptococcus pyogenes serotype M1, UniProt P10520).
T4 sequence (P10520 whole entry): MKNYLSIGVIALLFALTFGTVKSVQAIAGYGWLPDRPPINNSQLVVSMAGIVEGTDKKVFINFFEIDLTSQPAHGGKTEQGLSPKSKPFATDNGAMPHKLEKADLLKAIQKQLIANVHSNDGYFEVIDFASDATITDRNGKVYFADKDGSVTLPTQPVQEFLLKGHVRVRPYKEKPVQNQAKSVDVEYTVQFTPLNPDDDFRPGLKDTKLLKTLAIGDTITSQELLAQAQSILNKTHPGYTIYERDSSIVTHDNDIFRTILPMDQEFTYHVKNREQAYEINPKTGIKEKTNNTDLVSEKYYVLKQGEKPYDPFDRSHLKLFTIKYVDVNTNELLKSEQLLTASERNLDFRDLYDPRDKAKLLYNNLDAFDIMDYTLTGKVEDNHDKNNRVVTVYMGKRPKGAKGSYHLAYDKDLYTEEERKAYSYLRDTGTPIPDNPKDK
The experiment in a line: S. pyogenes streptokinase expression inhibitors, potency, dose response, plasminogen activation absorbance, OD405 (AID 1914).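 Also: secreted streptokinase activity via plasminogen activation per viability signal from cell pellet.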 Type of series: functional, Streptococcus pyogenes M1 GAS.

In series [18] the test system is HEK293. Nature of the series: cells. The following applies: Homo sapiens.
For series [19], the system named is HEK293. Nature of the series: cells. The conditions noted are these: Homo sapiens. This is another data set of the same source.
The subject of series [20] is Streptococcus sp. 'group A'. Nature of the series: growth inhibition of control SK(-) GAS strain, dose response, counter-screen for streptokinase expression inhibitor project, luminescence, kanamycin, BacTiterGlo, confirmation (AID 1900). Type of series: functional, organism-based.
A further series deals with Streptococcus. Nature of the series: Group A Streptococcus viability loss, dose response, counter-screen for streptokinase expression inhibitor project, luminescence, BacTiterGlo (AID 1915).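 Also: potency for reduction of bacterial viability or growth.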 Type of series: functional, organism-based.
Series [21] concerns the target Melanin-concentrating hormone receptor 1 (Homo sapiens, UniProt Q99705). Nature of the series: Fluorescence-based counterscreen for antagonists of the G-protein coupled receptor 7 (GPR7): cell-based high throughput dose response assay to identify antagonists of the melanin-concentrating hormone receptor 1 (MCHR1). In kind it is functional.
The target of series [22] is T5, Neuropeptides B/W receptor type 1 (Homo sapiens, UniProt P48145).
T5 sequence (P48145 whole entry): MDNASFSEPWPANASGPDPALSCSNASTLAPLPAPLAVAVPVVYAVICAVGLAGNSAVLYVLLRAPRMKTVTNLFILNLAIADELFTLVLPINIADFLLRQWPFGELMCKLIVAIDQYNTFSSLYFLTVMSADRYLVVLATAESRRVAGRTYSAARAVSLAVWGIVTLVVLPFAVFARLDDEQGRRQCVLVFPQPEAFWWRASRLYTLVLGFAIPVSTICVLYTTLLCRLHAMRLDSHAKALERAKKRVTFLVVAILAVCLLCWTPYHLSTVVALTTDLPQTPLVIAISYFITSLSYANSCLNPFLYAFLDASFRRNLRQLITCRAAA
Nature of the series: Fluorescence-based dose response cell-based high throughput screening assay to identify antagonists of the G-protein coupled receptor 7 (GPR7). [Related pubchem assays: 1952 (Screening assay (GPR7 antagonists).), 1880 (Summary AID.)]. Type of series: functional.

The nature of series [23]: insulin promoter down-regulators in MIN6 cells, imaging, high-content screening, mouse beta cells (AID 1628). In kind it is functional.
The nature of series [24]: cytotoxicity in MIN6 insulinoma cells, dose response, cytotoxicity control, cell-based, mouse insulinoma (AID 2122).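 Also: confirmatory high-throughput counterscreen run to flag cytotoxic compounds; mouse MIN-6 beta cells carrying an insulin promoter eGFP reporter.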 Type of series: functional.

The source made the active and inactive calls.

Chain of Phosphomannomutase 2 (O15305 whole entry): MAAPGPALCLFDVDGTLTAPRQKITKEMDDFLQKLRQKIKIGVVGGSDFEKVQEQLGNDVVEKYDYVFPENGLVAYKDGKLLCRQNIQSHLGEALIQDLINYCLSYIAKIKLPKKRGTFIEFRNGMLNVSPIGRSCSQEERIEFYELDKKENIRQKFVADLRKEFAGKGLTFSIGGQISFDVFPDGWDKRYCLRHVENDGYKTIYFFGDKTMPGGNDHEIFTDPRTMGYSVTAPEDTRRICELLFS
Chain of Cytochrome P450 3A4 (P08684 whole entry): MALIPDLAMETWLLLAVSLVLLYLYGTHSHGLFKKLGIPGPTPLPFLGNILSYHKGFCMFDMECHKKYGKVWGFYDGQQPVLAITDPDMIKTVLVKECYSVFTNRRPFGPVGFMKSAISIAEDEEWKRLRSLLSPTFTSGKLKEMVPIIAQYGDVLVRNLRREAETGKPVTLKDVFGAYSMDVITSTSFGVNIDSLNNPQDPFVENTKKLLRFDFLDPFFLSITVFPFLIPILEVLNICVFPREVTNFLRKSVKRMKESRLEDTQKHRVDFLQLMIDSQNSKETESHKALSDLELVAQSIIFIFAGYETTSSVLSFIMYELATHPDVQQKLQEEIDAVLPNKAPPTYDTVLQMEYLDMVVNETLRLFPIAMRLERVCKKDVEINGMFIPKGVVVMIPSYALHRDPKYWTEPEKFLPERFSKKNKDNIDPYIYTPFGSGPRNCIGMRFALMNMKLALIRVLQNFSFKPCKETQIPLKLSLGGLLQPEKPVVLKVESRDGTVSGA
Chain of Phosphoethanolamine/phosphocholine phosphatase (Q8TCT1 whole entry): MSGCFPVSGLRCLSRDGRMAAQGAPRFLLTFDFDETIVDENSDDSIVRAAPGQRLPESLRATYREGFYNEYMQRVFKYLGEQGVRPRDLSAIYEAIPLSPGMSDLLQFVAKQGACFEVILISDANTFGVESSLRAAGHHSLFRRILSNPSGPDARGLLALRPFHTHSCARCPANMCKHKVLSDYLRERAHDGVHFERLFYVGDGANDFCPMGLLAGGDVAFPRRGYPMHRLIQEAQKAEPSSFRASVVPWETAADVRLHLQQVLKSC
Chain of Cytochrome P450 2C9 (P11712 whole entry): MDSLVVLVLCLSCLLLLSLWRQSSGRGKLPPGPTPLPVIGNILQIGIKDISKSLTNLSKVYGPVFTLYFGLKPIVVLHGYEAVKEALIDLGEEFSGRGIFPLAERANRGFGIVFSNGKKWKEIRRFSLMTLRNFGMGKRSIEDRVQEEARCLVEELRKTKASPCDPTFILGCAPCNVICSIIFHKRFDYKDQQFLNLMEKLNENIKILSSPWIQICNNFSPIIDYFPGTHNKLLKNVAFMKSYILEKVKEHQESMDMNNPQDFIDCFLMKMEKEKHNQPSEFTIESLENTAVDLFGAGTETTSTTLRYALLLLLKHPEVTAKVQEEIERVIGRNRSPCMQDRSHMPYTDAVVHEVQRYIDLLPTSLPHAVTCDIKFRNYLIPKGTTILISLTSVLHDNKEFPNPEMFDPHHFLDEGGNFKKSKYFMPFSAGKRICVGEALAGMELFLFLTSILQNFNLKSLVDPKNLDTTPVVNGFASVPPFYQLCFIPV
Chain of Exodeoxyribonuclease V (P04993 whole entry): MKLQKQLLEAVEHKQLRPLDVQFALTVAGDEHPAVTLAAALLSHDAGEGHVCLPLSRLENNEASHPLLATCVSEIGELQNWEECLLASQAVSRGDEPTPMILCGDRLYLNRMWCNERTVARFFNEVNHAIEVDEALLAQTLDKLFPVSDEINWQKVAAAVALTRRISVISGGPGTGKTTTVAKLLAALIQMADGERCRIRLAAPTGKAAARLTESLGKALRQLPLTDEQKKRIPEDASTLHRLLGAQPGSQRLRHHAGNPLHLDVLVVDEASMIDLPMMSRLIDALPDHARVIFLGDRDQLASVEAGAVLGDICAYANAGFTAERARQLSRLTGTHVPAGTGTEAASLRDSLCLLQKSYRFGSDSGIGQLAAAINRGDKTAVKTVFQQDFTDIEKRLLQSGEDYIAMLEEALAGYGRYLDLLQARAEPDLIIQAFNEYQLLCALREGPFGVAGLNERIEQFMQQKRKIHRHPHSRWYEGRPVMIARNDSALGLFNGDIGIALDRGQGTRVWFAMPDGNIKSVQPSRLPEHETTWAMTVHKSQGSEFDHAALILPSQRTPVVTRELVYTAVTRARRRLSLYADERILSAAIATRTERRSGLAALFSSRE
Chain of Exodeoxyribonuclease V (P07648 whole entry): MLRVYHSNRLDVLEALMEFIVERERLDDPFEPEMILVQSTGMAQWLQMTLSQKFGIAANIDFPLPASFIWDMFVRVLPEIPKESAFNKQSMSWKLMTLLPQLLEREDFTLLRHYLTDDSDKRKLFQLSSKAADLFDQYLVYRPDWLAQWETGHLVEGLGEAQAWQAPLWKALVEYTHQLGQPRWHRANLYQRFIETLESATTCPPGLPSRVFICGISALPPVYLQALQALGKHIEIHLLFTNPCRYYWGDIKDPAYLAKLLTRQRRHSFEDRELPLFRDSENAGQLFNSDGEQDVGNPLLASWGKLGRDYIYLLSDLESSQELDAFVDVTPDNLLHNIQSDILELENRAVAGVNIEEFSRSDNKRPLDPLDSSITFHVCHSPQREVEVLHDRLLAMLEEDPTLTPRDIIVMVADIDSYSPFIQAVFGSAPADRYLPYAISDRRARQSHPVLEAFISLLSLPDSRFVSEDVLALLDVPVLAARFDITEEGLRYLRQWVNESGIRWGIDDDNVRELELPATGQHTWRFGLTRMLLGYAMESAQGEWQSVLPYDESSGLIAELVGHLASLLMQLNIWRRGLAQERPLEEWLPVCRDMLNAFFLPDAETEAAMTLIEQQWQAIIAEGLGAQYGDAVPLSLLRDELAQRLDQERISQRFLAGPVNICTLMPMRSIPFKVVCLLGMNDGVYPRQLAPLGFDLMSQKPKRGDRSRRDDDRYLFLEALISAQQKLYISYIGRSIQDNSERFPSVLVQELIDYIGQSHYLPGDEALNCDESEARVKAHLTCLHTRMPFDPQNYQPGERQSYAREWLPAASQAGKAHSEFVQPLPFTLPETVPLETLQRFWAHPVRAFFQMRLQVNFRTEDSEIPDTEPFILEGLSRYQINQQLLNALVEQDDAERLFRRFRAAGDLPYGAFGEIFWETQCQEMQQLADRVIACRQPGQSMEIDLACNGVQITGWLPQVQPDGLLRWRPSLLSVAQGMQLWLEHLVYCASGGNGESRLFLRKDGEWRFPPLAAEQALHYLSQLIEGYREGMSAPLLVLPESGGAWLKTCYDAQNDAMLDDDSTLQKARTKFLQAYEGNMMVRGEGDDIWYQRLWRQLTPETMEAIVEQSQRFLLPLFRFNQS
Chain of Exodeoxyribonuclease V (P08394 whole entry): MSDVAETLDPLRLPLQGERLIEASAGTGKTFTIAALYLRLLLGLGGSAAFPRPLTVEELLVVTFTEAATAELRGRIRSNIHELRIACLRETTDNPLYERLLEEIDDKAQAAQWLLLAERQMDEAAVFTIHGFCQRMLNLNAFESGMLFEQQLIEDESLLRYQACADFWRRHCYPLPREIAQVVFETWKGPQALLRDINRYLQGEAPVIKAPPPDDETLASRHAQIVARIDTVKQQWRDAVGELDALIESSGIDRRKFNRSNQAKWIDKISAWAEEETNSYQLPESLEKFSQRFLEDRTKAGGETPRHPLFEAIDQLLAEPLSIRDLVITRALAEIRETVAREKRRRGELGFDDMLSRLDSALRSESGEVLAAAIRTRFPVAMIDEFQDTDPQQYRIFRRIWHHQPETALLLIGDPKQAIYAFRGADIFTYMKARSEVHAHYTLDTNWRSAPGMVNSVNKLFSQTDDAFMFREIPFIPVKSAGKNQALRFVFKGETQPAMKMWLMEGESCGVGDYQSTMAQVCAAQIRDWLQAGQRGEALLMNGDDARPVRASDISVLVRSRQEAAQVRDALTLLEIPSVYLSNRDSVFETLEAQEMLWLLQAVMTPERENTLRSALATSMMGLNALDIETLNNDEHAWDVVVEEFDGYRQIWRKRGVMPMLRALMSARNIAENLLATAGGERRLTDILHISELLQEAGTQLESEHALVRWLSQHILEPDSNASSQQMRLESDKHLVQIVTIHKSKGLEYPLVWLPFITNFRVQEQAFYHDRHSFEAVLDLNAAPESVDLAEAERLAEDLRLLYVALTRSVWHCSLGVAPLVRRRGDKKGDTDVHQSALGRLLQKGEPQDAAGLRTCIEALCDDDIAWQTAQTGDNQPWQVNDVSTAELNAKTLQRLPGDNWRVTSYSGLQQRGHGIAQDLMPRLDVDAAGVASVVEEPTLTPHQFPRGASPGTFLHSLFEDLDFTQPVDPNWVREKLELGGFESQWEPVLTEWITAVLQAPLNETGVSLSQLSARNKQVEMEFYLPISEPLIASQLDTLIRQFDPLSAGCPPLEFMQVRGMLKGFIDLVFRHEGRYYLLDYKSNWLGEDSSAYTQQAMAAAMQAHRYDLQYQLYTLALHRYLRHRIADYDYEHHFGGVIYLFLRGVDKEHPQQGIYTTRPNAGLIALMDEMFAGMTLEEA
Chain of Melanin-concentrating hormone receptor 1 (Q99705 whole entry): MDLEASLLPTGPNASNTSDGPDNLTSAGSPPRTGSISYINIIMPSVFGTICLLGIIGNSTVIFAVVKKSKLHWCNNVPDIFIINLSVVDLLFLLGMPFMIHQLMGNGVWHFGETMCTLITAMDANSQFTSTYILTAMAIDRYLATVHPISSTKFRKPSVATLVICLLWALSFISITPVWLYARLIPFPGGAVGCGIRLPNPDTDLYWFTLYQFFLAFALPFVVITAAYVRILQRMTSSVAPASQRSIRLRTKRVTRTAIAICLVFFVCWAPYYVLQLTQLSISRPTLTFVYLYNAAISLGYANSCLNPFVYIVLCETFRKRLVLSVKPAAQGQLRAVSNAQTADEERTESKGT

Take `CCC(=O)NC(c1cccs1)c1cc(Cl)c2cccnc2c1O` (stereo unspecified): the EC50 in [1] is 34.7 µM (active); in series [2], > 180 µM (inactive); in [4], > 150 µM (inactive); in “cells [5]”, > 350 µM (not active); in “cells [6]”, 61.3 µM (active); in series [7], 0.48 µM (active). For the same compound, the EC50 was 0.692 µM (active) in series [8] and 1.13 µM (active) in series [10]. For the same compound, the IC50 (in series [3]; on Exodeoxyribonuclease V) was > 119 µM (inactive) throughout. The CC50 with Vero was 3.84 µM (active). For the same compound, the results for the AC50 (with INS1; in [9]) were 1.28 µM (active) and 3.61 µM (active), respectively.
In the case of `CCCCCOc1ccc(/C=C/c2c([N+](=O)[O-])c(=O)n(C)c(=O)n2C)cc1`, the IC50 is > 20 µM (inactive) in the series with HEK293 [11], > 20 µM (inactive) in the series with HEK293 [12] and 8.94 µM (active) in the series with HEK293 [14]. Also, the EC50 with HEK293 [13] was > 20 µM (inactive).
For `CCN(CC)S(=O)(=O)c1cccc(-n2sc3ccccc3c2=O)c1`, the IC50 in series [15] was > 100 µM (inactive); on Phosphomannomutase 2 it was > 100 µM (inactive); in series [16], 0.555 µM (active); in series [17], 61.9 µM (active).
For `CCOC(=O)N1CCN(CC(=O)c2ccc3c(c2)CCN3)CC1`, the concentration at half-maximal activity (AC50) result is “inconclusive” on Cytochrome P450 3A4 and 17.8 µM (inconclusive) on Cytochrome P450 2C9.
Regarding `Fc1ccc(-n2cc(-c3ccccc3)c3c(S)ncnc32)cc1`, the EC50 is > 150 µM (not active) on Streptokinase A; > 59.6 µM (inactive) with HEK293 [18]; > 59.6 µM (inactive) in the series with HEK293 [19]; 12.1 µM (active) in series [20]; > 150 µM (not active) with Streptococcus.
`Cc1ccccc1Oc1ncnc2oc(-c3ccccc3)cc12`: the AC50 result at Cytochrome P450 3A4 is reported as “inconclusive”. Moreover, the IC50 in [21] is given as 24.3 µM (not active); in [22] it was > 43.8 µM (not active).
Regarding `Cc1ccc(-n2sc3c4c(ccc3c2=O)C(=O)c2ccccc2C4=O)cc1`, the IC50 was > 100 µM (inactive) on Phosphomannomutase 2, 2.02 µM (inactive) in series [16] and > 50 µM (inactive) in series [17].
As to `CC(=O)Nc1ccc(S(=O)(=O)N(C)CCOCc2ccccc2)cc1`, the IC50 was 1.82 µM (active) in series [23] and 1.48 µM (active) in series [24].

As a reminder, the EC50 is the concentration needed to bring the measured effect to its halfway point. For orientation: IC50 means the point on the concentration scale where inhibition reaches its midpoint. The CC50 is the concentration giving 50% cytotoxicity. A word on the AC50: it is the midpoint of the concentration-response curve, whichever way the signal moves.
